The values that follow come from paper PMC7346113, “Screening of Natural Stilbene Oligomers from Vitis vinifera for Anticancer Activity on Human Hepatocellular Carcinoma Cells” (Antioxidants, 2020).

Common to all, as to assay type: cell-based, human
Conditions in all cases: mean ± standard error

For one test, the system named is HH4. Description: Cell viability, crystal violet assay, HH4 non-transformed hepatocytes. An excerpt: (§1) The human hepatoma cell line HepG2 was obtained from the American Tissue Culture Collection (ATCC, Manassas, VA, USA). The human hepatoma cell line Hep3B was obtained from the European Collection of Authenticated Cell Cultures (ECACC, Porton Down, Salisbury, Wiltshire, UK). HH4 non-transformed human hepatocyte cell line (kindly provided by Dr. I. Fabregat, Molecular Oncology, Bellvitge Biomedical Research Institute, Spain) was established as described.
(§2) HepG2 and Hep3B cell lines were maintained in Eagle’s Minimum Essential Medium and HH4 cell line was grown in Ham´s F12 Nutrient Mixture (Sigma-Aldrich, St Louis, MO, USA). Both culture media were supplemented with 10% heat inactivated fetal bovine serum, 2 mM L-glutamine and antibiotics (0.1 mg/mL streptomycin and 100 U/mL penicillin) (Sigma-Aldrich, St Louis, MO, USA). Cell cultures were grown in an incubator at 37 °C with 5% CO2 atmosphere. After reaching approximately 80% of confluence, cells were detached in a solution of 0.1% trypsin and 0.04% EDTA and plated as required for further experiments.
(§3) Cell lines were seeded into 96-well plates at 5 × 10^3 (HepG2) and 3 × 10^3 (Hep3B and HH4) cells/well 24 h before treatment. Increasing concentrations of the monomer trans-resveratrol, the dimers ampelopsin A and trans-ε-viniferin and the tetramers isohopeaphenol, hopeaphenol, R2-viniferin and R-viniferin were then added and cells were incubated for 24, 48, and 72 h. Stilbenes were dissolved in dimethyl sulfoxide (DMSO), Sigma-Aldrich, St Louis, MO, USA) at a final concentration of 0.01%. The same amount of DMSO was added to control cells. After treatment, the cell viability was determined using the crystal violet assay. The absorbance was recorded at 590 nm in a Synergy HT microplate reader (BioTek, Winooski, VT, USA). Cell viability was calculated as the percentage of viable cells treated with stilbene versus untreated control cells using the following equation: Cell viability (%) = [OD (Treatment) − OD (Blank)]/[OD (Control) − OD (Blank)] × 100. The cytotoxic effect of stilbenes was determined by calculating IC50 values using non-linear regression analysis (GraphPad Prism 6, San Diego, CA, USA).
(§4) The statistical package SPSS 19.0 (SPSS Inc. Chicago, IL, USA) was used for data analysis. The results were expressed as mean ± standard error (SE) from at least three experiments. Statistical significance for the differences of the means was estimated by parametric Student’s t-test. Differences between means were considered statistically significant for p < 0.05. IC50 values were derived from fitting the data to a sigmoidal dose-response curve with a three-parameter logistic model using Graph Pad Prism 6.

The next test has as its system Hep3B. The test can be described thus: Cell viability, crystal violet assay, Hep3B.
Source text: as §1, §2, §3, §4

The test system of another test is HepG2. The test can be described thus: Cell viability, crystal violet assay, HepG2.
Source text: as §1, §2, §3, §4

Setting [1] is: Homo sapiens, HepG2, 24 h, 24 h.
Setting [2] is: Homo sapiens, HepG2, 48 h, 48 h.
Where [3] appears, read: Homo sapiens, HepG2, 72 h, 72 h.

On to `Oc1ccc(/C=C/c2cc(O)cc(O)c2)cc1` [trans-Resveratrol, reference compound], for which the IC50 (usually the midpoint of a concentration-inhibition curve) in the test on HH4 (Homo sapiens, Hepatocyte, 24 h) is more than 200 µM; in the test on HH4 (Homo sapiens, Hepatocyte, 48 h) it was 135 ± 9 µM; with HH4 (Homo sapiens, Hepatocyte, 72 h), 93 ± 16.1 µM; in the test with Hep3B (Homo sapiens, Hep3B, 24 h), more than 200 µM; in the test on Hep3B (Homo sapiens, Hep3B, 48 h), 42 ± 11.6 µM; with Hep3B (Homo sapiens, Hep3B, 72 h) it was 21 ± 16.8 µM. Moreover, the IC50 in the test on HepG2 (72 h) is 30.3 ± 4.4 µM; in the test on HepG2 (setting [1]), more than 200 µM; with HepG2 (setting [2]), 40.3 ± 9.3 µM; in the test with HepG2 (setting [3]), 30 µM.

Turning to `Oc1ccc([C@H]2Oc3cc(O)cc(/C=C/c4ccc5c(c4)[C@@H](c4cc(O)cc6c4[C@H](c4cc(O)cc(O)c4)[C@@H](c4ccc(O)cc4)O6)[C@H](c4ccc(O)cc4)O5)c3[C@@H]2c2cc(O)cc(O)c2)cc1` [R-Viniferin], the IC50 in the test on Hep3B (Homo sapiens, Hep3B, 24 h) is more than 200 µM; with Hep3B (Homo sapiens, Hep3B, 48 h), 137 ± 19.8 µM; in the test with Hep3B (Homo sapiens, Hep3B, 72 h), 135 ± 35.7 µM; in the test with HepG2 (setting [1]), more than 200 µM; in the test with HepG2 (setting [2]) it was more than 200 µM; in the test on HepG2 (setting [3]) it was 192 ± 27.1 µM.

Consider `Oc1ccc(/C=C/c2cc(O)cc3c2[C@@H](c2cc(O)cc(O)c2)[C@H](c2ccc(O)cc2)O3)cc1` [trans-ε-Viniferin], for which the concentration for half-maximal inhibition (IC50) with HH4 (72 h) is 178 ± 20.5 µM; in the test with HH4 (Homo sapiens, Hepatocyte, 24 h) it was more than 200 µM; in the test on HH4 (Homo sapiens, Hepatocyte, 48 h), 193 ± 21.1 µM; with HH4 (Homo sapiens, Hepatocyte, 72 h) it was 178 µM; in the test on Hep3B (72 h), 63.1 ± 10.8 µM; in the test with Hep3B (Homo sapiens, Hep3B, 24 h), 108 ± 31.8 µM. Also, the IC50 with Hep3B (Homo sapiens, Hep3B, 48 h) stood at 73.9 ± 17.3 µM; in the test with Hep3B (Homo sapiens, Hep3B, 72 h), 63 µM; in the test on HepG2 (setting [1]) it was 140 ± 39.7 µM; in the test with HepG2 (setting [2]), 104 ± 19.2 µM; with HepG2 (setting [3]), 94.8 ± 28.3 µM.

Take `Oc1ccc([C@H]2c3c(O)cc(O)cc3[C@H]3c4c(cc(O)cc4[C@@H]2O)O[C@@H]3c2ccc(O)cc2)cc1` [Ampelopsin A]: the IC50 is more than 200 µM in the test on HH4 (Homo sapiens, Hepatocyte, 24 h); 178 ± 67.8 µM with HH4 (Homo sapiens, Hepatocyte, 48 h); 134 ± 34.7 µM with HH4 (Homo sapiens, Hepatocyte, 72 h); more than 200 µM in the test with Hep3B (Homo sapiens, Hep3B, 24 h); 148 ± 14.4 µM with Hep3B (Homo sapiens, Hep3B, 48 h); 109 ± 7.3 µM in the test on Hep3B (Homo sapiens, Hep3B, 72 h). For the same compound, the IC50 with HepG2 (72 h) was 75.5 ± 21.5 µM; with HepG2 (setting [1]), more than 200 µM; in the test with HepG2 (setting [2]) it was 98.6 ± 24.9 µM; with HepG2 (setting [3]), 76 µM.

Take `Oc1ccc([C@H]2c3c(O)cc(O)cc3[C@H]3c4c(cc(O)cc4[C@@H]2[C@H]2c4cc(O)cc5c4[C@H](c4cc(O)cc(O)c4[C@@H]2c2ccc(O)cc2)[C@@H](c2ccc(O)cc2)O5)O[C@@H]3c2ccc(O)cc2)cc1` [Hopeaphenol]: the IC50 was more than 200 µM in the test with HH4 (Homo sapiens, Hepatocyte, 24 h); 92 ± 38 µM in the test with HH4 (Homo sapiens, Hepatocyte, 48 h); 37.6 ± 13 µM with HH4 (Homo sapiens, Hepatocyte, 72 h); 13.1 ± 4.1 µM in the test with Hep3B (72 h); more than 200 µM in the test on Hep3B (Homo sapiens, Hep3B, 24 h); 16.8 ± 2.3 µM in the test on Hep3B (Homo sapiens, Hep3B, 48 h). Also, the IC50 with Hep3B (Homo sapiens, Hep3B, 72 h) was 13 µM; in the test on HepG2 (72 h) it was 24.4 ± 2 µM; with HepG2 (setting [1]), more than 200 µM; in the test on HepG2 (setting [2]), 27 ± 3.3 µM; with HepG2 (setting [3]) it was 24 µM.

For the compound `Oc1ccc([C@@H]2c3c(O)cc(O)cc3[C@H]3c4c(cc(O)cc4[C@@H]2[C@H]2c4cc(O)cc5c4[C@H](c4cc(O)cc(O)c4[C@H]2c2ccc(O)cc2)[C@@H](c2ccc(O)cc2)O5)O[C@@H]3c2ccc(O)cc2)cc1` [Isohopeaphenol], the IC50 was more than 200 µM in the test with HH4 (Homo sapiens, Hepatocyte, 24 h); 96 ± 5.5 µM with HH4 (Homo sapiens, Hepatocyte, 48 h); 63.7 ± 3.7 µM in the test with HH4 (Homo sapiens, Hepatocyte, 72 h); 86.6 ± 11.7 µM in the test on Hep3B (Homo sapiens, Hep3B, 24 h); 37 ± 4.5 µM in the test on Hep3B (Homo sapiens, Hep3B, 48 h); 26 ± 3 µM with Hep3B (Homo sapiens, Hep3B, 72 h). Moreover, the IC50 in the test on HepG2 (72 h) stood at 54.1 ± 34 µM; in the test on HepG2 (setting [1]), 113 ± 33 µM; in the test on HepG2 (setting [2]), 68.8 ± 31 µM; in the test on HepG2 (setting [3]), 54 µM.
